According to patent US20200138744A1, “METHODS OF TREATING PANCREATIC CANCER USING COENZYME Q10” (Berg LLC, priority 2018, published 2020):

Assays:
[1] = Phase I clinical trial; monotherapy and in combination with gemcitabine; IV
Excerpt: (§1) The composition comprising Coenzyme Q10 evaluated in this study is a ubidecarenone containing intravenous (IV) nanodispersion that switches cancer energy generation from glycolysis to mitochondrial oxidative phosphorylation to elicit an anticancer effect.

[2] = Phase 2 clinical study, adverse events / toxicity profile; conditions: for Patients with an AE: safety population (31 patients), % of all 31
Method: Eligible patients (aged ≥18 y) were relapsed/refractory to standard treatment and met inclusion/exclusion criteria. […] Each received either two 72-hr infusions of 110 mg/kg IV Coenzyme Q10 alone (Monotherapy) or in combination with gemcitabine (Combination Therapy), per week. Tumor response was evaluated at week 10 and then every 8 weeks. Clinical assessments included investigator observations and patient reports.
(§2) A Coenzyme Q10 Nanosuspension Injection (40 mg/mL) was administered IV over 144 hours. Each patient received 2 consecutive 72-hour infusions per week. Monotherapy arm patients received a Coenzyme Q10 dose of 110 mg/Kg only weekly. Patients in the combination therapy arm received a Coenzyme Q10 dose of 110 mg/Kg and gemcitabine IV once weekly (starting at week 3) at a starting dose of 1000 mg/m^2.

[3] = tested on: metastatic pancreatic cancer; test: Phase 2 clinical study, efficacy (RECIST 1.1, TTP, PFS, OS)
Method: Eligible patients (aged ≥18 y) were relapsed/refractory to standard treatment and met inclusion/exclusion criteria. […] Each received either two 72-hr infusions of 110 mg/kg IV Coenzyme Q10 alone (Monotherapy) or in combination with gemcitabine (Combination Therapy), per week. Tumor response was evaluated at week 10 and then every 8 weeks. Clinical assessments included investigator observations and patient reports. This study occurred in two parts: Part 1 of the study enrolled ten (10) patients in the Coenzyme Q10 (monotherapy arm) and ten (10) patients in the Coenzyme Q10 plus gemcitabine (combination therapy arm) with intent to enroll the additional 15 patients (Part 2) into the applicable treatment arm(s) based on RECIST v1.1 clinical response.
Patients with no prior gemcitabine treatments prior to screening for the study, or prior gemcitabine treatment >3 months prior to screening for the study were assigned to the combination therapy group. Patients with prior gemcitabine discontinued due to toxicity in prior treatment, patients unable to tolerate a dose of 800 mg/m^2 weekly at any point due to toxicity, and patients with prior gemcitabine treatment ≤3 months prior to screening for the study were assigned to the monotherapy group.
as §2
The primary objective of the study was to evaluate the Overall Response Rate (ORR) in patients treated with the combination of Coenzyme Q10 with gemcitabine or Coenzyme Q10 as a monotherapy. The secondary objectives were to evaluate Overall Survival (OS), Progression-Free Survival (PFS) overall and at around 10 weeks (equal to 2 cycles of treatment), Time to Progression (TTP), Tumor Response using Adaptive Molecular Responses (multi-omic molecular profiling), the toxicity profile of Coenzyme Q10 with gemcitabine and as monotherapy when given over 144-hour intravenous (IV) infusion in patients with advanced pancreatic cancer, changes in carbohydrate antigen (CA) 19-9 levels, and patient reported Quality of Life (QOL) using the validated FACT-HEP PRO.
The study described above in Example 1 was continued and additional patients were evaluated.

[4] = tested on: pancreatic models; test: Preclinical in vivo pancreatic models, survival; conditions: IV administration, alone and in combination with gemcitabine
Excerpt: as §1

[5] = treatment-emergent, safety population
[6] = Example 1, overall current population
[7] = Example 1, preliminary, both arms

## COC1=C(OC)C(=O)C(C/C=C(\C)CC/C=C(\C)CC/C=C(\C)CC/C=C(\C)CC/C=C(\C)CC/C=C(\C)CC/C=C(\C)CC/C=C(\C)CC/C=C(\C)CCC=C(C)C)=C(C)C1=O [Coenzyme Q10]
[1]
  MTD: 110 mg/kg
[2]; Example 1
  patients who experienced at least 1 AE: All
[2]; Example 1, 31 treated patients
  INR increase, frequency of AE: 48.4%
  abdominal pain, frequency of AE: 35.5%
  fatigue, frequency of AE: 38/7
  thrombocytopenia, frequency of AE: 35.5%
[2]; Example 1, Phase 2
  tolerability: well-tolerated
[2]; Example 1, number of AEs
  AEs considered definitely related to study drug: 10
  AEs considered possibly related to study drug: 19
  AEs considered probably related to study drug: 14
[2]; Example 2
  most common AE's: GI related
  tolerability: well tolerated
[2]; [5]
  Number of AEs: 347
  Subjects with any AE leading to study drug discontinuation: 4 (12.9) N (%)
  Subjects with any Infusion reactions: 0 N (%)
  Subjects with any Serious AE: 12 (38.7) N (%)
  Subjects with any ≥Grade 3 AE: 31 (100) N (%)
[2]; treatment-emergent, listed as Coenzyme Q10-IV
  Patients with an AE: 31 (100) N (%)
[2]; treatment-emergent, listed as Mono
  Patients with an AE: 13 (41.9) N (%)
[3]; [6]
  mean overall survival: 125 days
  mean time to progression (TTP): 68 days
  median overall survival: 108 days
  median time to progression (TTP): 53 days
[3]; [7]
  patients with SD <4 months: 4
  patients with SD >4 months: 3
[3]; Example 1, preliminary, of 13 evaluable patients
  stable disease (SD) noted, number of patients by arm: 1
[3]; Example 1, preliminary, of 13 evaluable patients, both arms
  stable disease (SD) noted, number of patients: 7
[3]; Example 2, adequately treated cohort, n=9/18, with gemcitabine
  best ORR of stable disease (SD), share of ATC population: 50%
[3]; Example 2, with gemcitabine, 95% CI 70-131, FIG. 4
  median Progression-Free Survival (PFS): 118 days
[3]; Example 2, with gemcitabine, 95% CI 70-147, FIG. 3
  median time to progression (TTP): 121 days
[3]; Example 2, with gemcitabine, 95% CI 131-228, FIG. 5
  median Overall Survival (OS): 218 days
[3]; FIG. 1, monotherapy or combination therapy
  correlation of time of Coenzyme Q10 exposure with time to progression: positively correlated
[3]; FIG. 2, monotherapy or combination therapy
  correlation of time of Coenzyme Q10 exposure with overall survival: positively correlated
[3]; Overall to Date (N = 47)
  Discontinuation from the study: Disease Progression: 12 (25.5) N (%)
[4]
  duration of survival outcomes: significantly improved
